“And” between values parts separate entries of the source, which are not always exact repeats. Equal entries are not always repeated.
What was measured:
[1] = Plasma exposure (AUC) of LD and CD after SC infusion, oral IR tablet, and SC + oral coadministration of LD/CD; type: in vivo
Description: A test was run in order to assess the plasma exposure of levodopa (LD) following the coadministration of LD and carbidopa (CD) in both subcutaneous (SC) and oral administrations. Accordingly, results obtained from a combined SC+oral administration were compared to results obtained from SC administration alone and from oral administration alone. An additive plasma exposure and PK profile was expected, i.e., it was expected that the SC+oral coadministration would provide results equal to the additive results of the SC and oral administrations, when each was administered separately.
16 healthy subjects (18-50 years) were treated in a crossover manner, i.e., sequentially, with a washout period of 6 days between the following two treatments: • Treatment A: A total dose of 180/22.5 mg LD/CD (formulation A) was administered by SC infusion over the course of 8 hours, at a steady infusion rate. • Treatment B: An immediate release (IR) tablet of 100/25 mg LD/CD was administered orally at time 0 h.
Following a 32 hour washout period, the same 16 healthy subjects were administered with LC/CD both orally and subcutaneously according to the following treatment: • Treatment C: A dose of 153.6/19.2 LD/CD (formulation A) was administered by SC infusion over the course of 8 hours, at a steady infusion rate, combined with a single co-administration of an oral IR LD/CD 100/25 mg tablet, 4 hours after the initiation of the infusion. Total LD/CD dose: 253.6/44.2 mg.
The normalized AUC0-8 of LD and CD of Treatment C, resulting from the combined SC and oral treatment, as described above, was calculated and compared to the sum of the normalized LD and CD AUCs obtained from Treatment A (AUC0-8 resulting from 8 h SC infusion) and Treatment B (AUC0-4 resulting from one IR oral tablet).

[2] = Method: The objective of this study was to determine the pharmacokinetics (PK) of levodopa (LD) in domestic pigs following continuous subcutaneous (SC) infusion of a levodopa prodrug, exemplified using LD-Tyr, administered concomitantly with oral Levodopa.
Table 6 provides the LD-Tyr formulation tested in this study: […]
The study consisted of 3 dosing sessions in which 5 female pigs (Swine/Landrace×large White, ˜40-50 kg each) were treated with the LD-Tyr solution of Table 6 and/or Sinemet JR oral tablets (CD/LD 25/100 mg tablet) in a cross-over design with up to 4-day washout period between dosing sessions, as detailed in the following tables:
As presented in Tables 7 and 8 above, the study included the following three test groups: • G1—received only SC LD-Tyr (600 mg total daily dose); • G2—received only oral LD (300 mg total daily dose); and • G3—received both SC LD-Tyr (600 mg total daily dose) and oral LD (200 mg total daily dose).
Blood samples for the determination of LD-Tyr (in groups 1 and 3), as well as LD and CD plasma levels (in all groups) were collected from the pigs at the following timepoints: • 0 (pre-dose), 30 min, 1 h, 2 h, 3 h, 4 h, 4.5 h, 5 h, 6 h, 7 h, 8 h, 8.5 h, 9 h, 10 h, 11 h, 13 h, 15 h 18 h following treatment initiation. Tablets were administered before blood collection (time 0, 4 and 8 h).
Plasma samples were analyzed for concentration of LD-Tyr (groups 1 and 3), as well as LD and CD (for all groups) using a qualified LC-MS/MS analytical method.
PK parameters (at least Cmax, tmax, t1/2, AUC) for LD-Tyr, LD and CD were calculated by noncompartmental methods using appropriate software (e.g. Phoenix® WinNonlin®). Individual and mean was calculated for quantitative parameters.
The LD exposure obtained from the SC infusion is considered to be the baseline.

[3] = geomean of group, Treatment A SC 8 h, normalized × 0.853
[4] = geomean of group, oral IR tablet 100/25 mg LD/CD

N[C@@H](Cc1ccc(O)c(O)c1)C(=O)O [LD, L-3,4-dihydroxyphenylalanine]
LD: 4. Treatment C AUC (0-8) [Observed], Geomean Group ([1]; geomean of group, SC 153.6/19.2 LD/CD over 8 h + oral 100/25 mg tablet at 4 h): 4817 | LD: 1. Treatment A AUC (0-8) × 0.853, Geomean Group [1, 3]: 2412 | LD: 2. Treatment B AUC (0-4), Geomean Group [1, 4]: 1458 | LD: 3. Combined 1 + 2 [Estimated], Geomean Group ([1]; geomean of group, sum A + B): 3870 | LD: Observed (C) vs. Additive Ratio, Geomean Individual ([1]; geomean of individual ratios): 1.240 | LD: Observed (C) vs. Additive Ratio, Geomean Group (mean ratio) ([1]; group geomean, Treatment C vs. A+B): 1.245 | LD: 1. Treatment A AUC (0-8) × 0.853 ([1]; individual subject (ID), Treatment A: 180/22.5 mg LD/CD formulation A, SC infusion over 8 h, AUC × 0.853 to equal SC dose of Treatment C): 2236 and 2266 and 2218 | LD: 4. Treatment C AUC (0-8) [Observed] ([1]; individual subject (ID), Treatment C: 153.6/19.2 LD/CD formulation A SC over 8 h + oral IR LD/CD 100/25 mg tablet at 4 h): 6325 and 5031 and 5059 and 4610 and 3961 | LD: 3. Combined 1 + 2 [Estimated] ([1]; individual subject (ID), sum of normalized Treatment A AUC and Treatment B AUC): 3087 | Synergism ratio, Mean ([2]; animal 115 excluded): 1.57 | Synergism ratio, Median ([2]; animal 115 excluded): 1.49 | Synergism ratio (actual / predicted LD AUC of oral add-ons) ([2]; individual pig): above 1 | Increase of LD plasma exposure by oral add-ons, on top of LD exposure from SC administration alone, versus predicted (average) ([2]; pigs, SC LD-Tyr/CD + oral LD/CD): over 50%

C[C@@](Cc1ccc(O)c(O)c1)(NN)C(=O)O [CD, carbidopa]
CD: 4. Treatment C AUC (0-8) [Observed], Geomean Group ([1]; geomean of group, SC + oral): 1051 | CD: 1. Treatment A AUC (0-8) × 0.853, Geomean Group [1, 3]: 900 | CD: 2. Treatment B AUC (0-4), Geomean Group [1, 4]: 309 | CD: 3. Combined 1 + 2 [Estimated], Geomean Group ([1]; human, in vivo): 1209 | CD: Observed (C) vs. Additive Ratio, Geomean Group (mean ratio) ([1]; human, in vivo): 0.869 | CD: Observed (C) vs. Additive Ratio, Geomean Individual ([1]; human, in vivo): 0.866 | CD: 4. Treatment C AUC (0-8) [Observed] ([1]; individual subject (ID), SC 153.6/19.2 LD/CD over 8 h + oral IR LD/CD 100/25 mg tablet at 4 h): 1086 | CD: 1. Treatment A AUC (0-8) × 0.853 ([1]; individual subject (ID), Treatment A: 180/22.5 mg LD/CD formulation A, SC infusion over 8 h, AUC × 0.853): 955 and 988 and 925 | CD: 2. Treatment B AUC (0-4) ([1]; individual subject (ID), oral IR tablet 100/25 mg LD/CD at 0 h): 318

From US20250082595A1, “METHODS AND COMPOSITIONS FOR TREATING PARKINSON’S DISEASE” (priority 2022, published 2025)
